This is an account of results in patent US5518735A, “Meta-substituted phenylalanine derivatives” (priority 1990, dated 1996).

For series [1] the following is noted: cited from earlier work.
The target in the next series is thrombin (Bos taurus, UniProt P00735). Description: Inhibition of thrombin (dissociation constant Ki). Format: biochemical.
For a further series, the target named is factor Xa (Bos taurus, UniProt P00743). The experiment in a line: Inhibition of factor Xa (dissociation constant Ki). The note with it: Tables 19-25; read-out: Ki, Factor Xa. It counts as biochemical.
Another series concerns the target T1, trypsin (Bos taurus, UniProt P00760).
T1 sequence (P00760 24-246): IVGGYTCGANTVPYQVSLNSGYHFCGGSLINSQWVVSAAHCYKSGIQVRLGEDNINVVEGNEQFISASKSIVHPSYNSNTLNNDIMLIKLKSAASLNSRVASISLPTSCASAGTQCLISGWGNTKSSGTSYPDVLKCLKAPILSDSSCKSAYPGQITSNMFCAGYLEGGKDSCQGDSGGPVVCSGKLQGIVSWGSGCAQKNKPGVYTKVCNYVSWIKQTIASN
Description: Inhibition of trypsin (Ki). It counts as biochemical. Particulars: Table 26.

The next series addresses T2, plasmin (Homo sapiens, UniProt P00747).
T2 construct: trypsin and the related enzymes thrombin, plasmin, factor Xa, tPA
The experiment in a line: Inhibition of plasmin (Ki). It counts as biochemical. The note with it: Table 26.

In another series the target is T3, factor XIIa (Homo sapiens, UniProt P00748).
T3 construct: glandular kallikrein, factor XIIa and plasma kallikrein
T3 sequence (P00748 373-615 limits assumed): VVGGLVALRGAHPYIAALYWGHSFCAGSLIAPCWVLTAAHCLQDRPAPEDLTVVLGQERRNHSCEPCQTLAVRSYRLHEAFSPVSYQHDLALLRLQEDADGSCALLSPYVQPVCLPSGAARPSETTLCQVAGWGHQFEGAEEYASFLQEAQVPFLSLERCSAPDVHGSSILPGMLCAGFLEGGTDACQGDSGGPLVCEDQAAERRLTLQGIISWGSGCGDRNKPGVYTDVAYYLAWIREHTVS
The experiment in a line: Inhibition of factor XIIa (Ki). The note with it: Table 26. Format: biochemical.

The target of the next series is tPA (Homo sapiens, UniProt P00750). The experiment in a line: Inhibition of tPA (Ki). Particulars: Table 26. Format: biochemical.
The next series concerns the target glandular kallikrein (Sus scrofa, UniProt P00752). Description: Inhibition of glandular kallikrein (Ki). Format: biochemical. The note with it: Table 26; read-out: Ki, Gland. Kallikrein.
A further series addresses T4, plasma kallikrein (Homo sapiens, UniProt P03952).
T4 construct: glandular kallikrein, factor XIIa and plasma kallikrein
Description: Inhibition of plasma kallikrein (Ki). It counts as biochemical. Particulars: Table 26.

A further series can be described thus: in vivo. The note with it: mouse.
Series [2] in a line: Plasma concentration in rats after oral administration (HPLC). Particulars: rat, plasma, po, 100 mg/kg.
Description: (§1) For the pharmacokinetic characterization, the plasma concentration of selected derivatives was determined in rats after intravenous (i.v.), subcutaneous (s.c.) and peroral (p.o.) application according to the following three-step procedure:
(§2) 1. A physiological NaCl solution of the substance to be tested was submitted to high pressure liquid chromatography (HPLC) in order to determine its characteristic substance-specific retention time with the chosen test conditions.
(§3) 2. The substance to be tested was diluted in vitro in rat plasma. This solution was also submitted to HPLC to see whether the characteristic peak of the substance once again appeared at the substance-specific retention time.
(§4) 3. […] Blood samples were taken at time intervals of 15 minutes, from which plasma samples were prepared by centrifugation; those samples were also submitted to HPLC to see whether the characteristic peak of the substance appeared again at the substance-specific retention time.
The nature of series [3]: Plasma concentration in rats after intravenous administration (HPLC).
Description: as §1, §2, §3, §4
Series [4] is described as follows: Plasma concentration in rats after subcutaneous administration (HPLC). Particulars: rat, plasma, sc, 5 mg/kg.
Description: as §1, §2, §3, §4
For another series, the system named is human plasma. The note with it: in vitro, FIG. 4. The protocol:
Various coagulation tests were used in vitro to determine the efficacy of the inhibitors towards the thrombin-induced coagulation of its natural substrate fibrinogen. For that purpose, the thrombin time (TT), the activated partial thromboplastin time (aPTT) and the prothrombin time (PT, Quick value) were determined in human plasma.

Where a name gives a salt, the structure may show the parent alone. Some results are limits rather than exact numbers.

Chain of tPA (P00750 36-562): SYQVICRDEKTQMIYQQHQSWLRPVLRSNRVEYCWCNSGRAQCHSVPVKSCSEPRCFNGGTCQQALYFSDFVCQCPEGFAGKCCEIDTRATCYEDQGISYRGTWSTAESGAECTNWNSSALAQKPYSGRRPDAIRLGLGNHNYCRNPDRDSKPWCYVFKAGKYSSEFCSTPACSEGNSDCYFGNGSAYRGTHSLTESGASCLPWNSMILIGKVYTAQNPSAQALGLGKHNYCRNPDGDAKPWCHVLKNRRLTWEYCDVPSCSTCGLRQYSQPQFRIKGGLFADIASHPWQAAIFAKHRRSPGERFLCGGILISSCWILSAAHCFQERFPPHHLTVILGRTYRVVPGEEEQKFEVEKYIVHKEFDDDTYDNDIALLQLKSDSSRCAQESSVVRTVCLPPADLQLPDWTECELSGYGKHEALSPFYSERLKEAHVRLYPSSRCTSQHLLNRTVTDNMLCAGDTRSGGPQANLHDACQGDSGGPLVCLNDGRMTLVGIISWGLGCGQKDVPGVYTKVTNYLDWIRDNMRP
Chain of glandular kallikrein (P00752 8-246): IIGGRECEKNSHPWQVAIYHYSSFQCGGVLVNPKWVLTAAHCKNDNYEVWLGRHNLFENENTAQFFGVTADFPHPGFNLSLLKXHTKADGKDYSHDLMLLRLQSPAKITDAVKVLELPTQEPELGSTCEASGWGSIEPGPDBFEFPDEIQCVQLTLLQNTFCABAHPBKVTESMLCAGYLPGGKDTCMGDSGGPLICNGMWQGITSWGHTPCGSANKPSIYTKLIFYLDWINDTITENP
T4 sequence (P03952 391-638 limits assumed, species assumed): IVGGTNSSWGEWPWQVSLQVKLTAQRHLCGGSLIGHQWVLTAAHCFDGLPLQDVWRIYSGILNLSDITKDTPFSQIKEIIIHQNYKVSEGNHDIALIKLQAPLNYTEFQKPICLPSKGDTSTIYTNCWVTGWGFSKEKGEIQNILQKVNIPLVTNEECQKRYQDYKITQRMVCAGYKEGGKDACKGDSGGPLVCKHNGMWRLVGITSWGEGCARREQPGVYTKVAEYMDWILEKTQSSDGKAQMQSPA
T4 sequence (P03952 20-390 partner limits assumed, species assumed): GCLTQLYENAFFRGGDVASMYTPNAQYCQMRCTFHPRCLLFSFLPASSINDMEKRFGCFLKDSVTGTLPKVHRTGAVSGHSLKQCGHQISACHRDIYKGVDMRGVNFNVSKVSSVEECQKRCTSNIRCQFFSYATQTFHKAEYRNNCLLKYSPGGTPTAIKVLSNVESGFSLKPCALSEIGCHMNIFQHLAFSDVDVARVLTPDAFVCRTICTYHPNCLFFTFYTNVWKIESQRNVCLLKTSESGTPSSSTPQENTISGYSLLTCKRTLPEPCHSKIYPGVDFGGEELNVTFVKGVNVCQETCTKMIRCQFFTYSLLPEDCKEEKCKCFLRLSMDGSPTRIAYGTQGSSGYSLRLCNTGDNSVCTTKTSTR
Chain of factor Xa (P00743 234-492 limits assumed): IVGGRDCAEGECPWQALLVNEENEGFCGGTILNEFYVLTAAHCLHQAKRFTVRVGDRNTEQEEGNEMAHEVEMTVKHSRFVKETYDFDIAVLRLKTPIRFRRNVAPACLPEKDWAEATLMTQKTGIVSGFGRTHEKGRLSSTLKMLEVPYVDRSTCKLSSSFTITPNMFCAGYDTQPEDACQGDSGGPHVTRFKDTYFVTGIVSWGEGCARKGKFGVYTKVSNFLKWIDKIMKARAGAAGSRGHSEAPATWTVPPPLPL
Chain of factor Xa (P00743 41-180 partner limits assumed): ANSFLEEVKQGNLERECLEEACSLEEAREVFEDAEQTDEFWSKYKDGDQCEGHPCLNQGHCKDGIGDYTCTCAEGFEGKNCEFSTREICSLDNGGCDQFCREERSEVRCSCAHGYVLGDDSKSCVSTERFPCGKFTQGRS
T2 sequence (P00747 581-810 limits assumed): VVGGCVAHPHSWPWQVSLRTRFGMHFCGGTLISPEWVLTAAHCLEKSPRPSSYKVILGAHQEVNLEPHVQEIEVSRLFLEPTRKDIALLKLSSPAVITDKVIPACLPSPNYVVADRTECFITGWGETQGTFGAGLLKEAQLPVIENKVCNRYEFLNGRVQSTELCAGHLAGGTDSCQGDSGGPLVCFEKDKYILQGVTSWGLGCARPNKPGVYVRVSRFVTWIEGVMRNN
T2 sequence (P00747 97-580 partner limits assumed): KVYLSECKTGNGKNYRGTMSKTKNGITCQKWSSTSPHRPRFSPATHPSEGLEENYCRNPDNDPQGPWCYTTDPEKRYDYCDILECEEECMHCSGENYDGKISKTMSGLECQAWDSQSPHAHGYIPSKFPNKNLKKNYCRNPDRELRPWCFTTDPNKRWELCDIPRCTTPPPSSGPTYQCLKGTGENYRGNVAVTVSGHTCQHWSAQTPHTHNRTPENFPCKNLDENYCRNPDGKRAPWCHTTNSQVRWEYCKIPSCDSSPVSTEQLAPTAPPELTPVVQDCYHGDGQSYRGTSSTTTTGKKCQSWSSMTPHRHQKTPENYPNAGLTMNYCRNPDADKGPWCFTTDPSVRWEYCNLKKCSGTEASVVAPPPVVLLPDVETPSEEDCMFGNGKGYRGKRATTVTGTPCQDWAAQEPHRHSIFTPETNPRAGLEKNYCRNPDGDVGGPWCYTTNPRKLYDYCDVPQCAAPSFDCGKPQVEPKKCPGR

As to BOC-D-Phe-Pro-Boro-Arg-C10 H16, the “absorption after oral administration” value in [1] was “absorption after oral administration has so far only been observed”.
Broadly, the Ki is a dissociation constant, usually derived from enzyme kinetics or from competition with a known ligand. As for `CC1CCN(C(=O)C(Cc2cccc(C(=N)N)c2)NC(=O)CNS(=O)(=O)c2ccc3ccccc3c2)CC1` (racemic) [Compound 156, N-α-(2-Naphthylsulfonyl)-glycyl-3-amidino-(D,L)-phenylalanine-4-methylpiperidide], the inhibitory constant (Ki) on thrombin is 3.6 µM; at factor Xa, 25 µM; on trypsin it was 46 µM; at plasmin it was 46 µM; on factor XIIa, 350 µM; at tPA, 340 µM. Further, the Ki on glandular kallikrein was above 1000 µM; on plasma kallikrein, 68 µM.
For the molecule `N=C(N)Nc1cccc(CC(NS(=O)(=O)c2ccc3ccccc3c2)C(=O)N2CCCCC2)c1` (racemic) [Compound 207, N-α-(2-Naphthylsulfonyl)-3-quanidino-(D,L)-phenylalanine-piperidide hydrochloride], the Ki on thrombin was 0.4 µM; at factor Xa it was 107 µM; at trypsin, 4.1 µM; at plasmin, 17 µM; at factor XIIa, above 1000 µM; at tPA, above 1000 µM. In addition, the Ki at glandular kallikrein and on plasma kallikrein was above 1000 µM each time.
In the case of `CC1CCN(C(=O)C(Cc2cccc(C(=N)N)c2)NS(=O)(=O)c2ccc3ccccc3c2)C(C(=O)O)C1` (racemic) [Compound 86], the Ki on thrombin was 0.12 µM; at factor Xa, 96 µM; on trypsin, 1.2 µM; at plasmin it was 42 µM; on factor XIIa, above 1000 µM; on tPA, 470 µM. Further, the Ki at glandular kallikrein was above 1000 µM; at plasma kallikrein, 84 µM.
The term LD50 denotes the dose expected to kill half of the subjects tested. High values mean a less toxic substance, low ones a more toxic substance. At thrombin, `N=C(NO)c1cccc(CC(NS(=O)(=O)c2ccc3ccccc3c2)C(=O)N2Cc3ccccc3CC2C(=O)O)c1` (racemic) [Compound 190, N-α-(2-Naphthylsulfonyl)-3-oxamidino-(D,L)-phenylalanyl-1,2,3,4-tetrahydroisoquinoline-3-carboxylic acid hydroiodide] came in with an inhibition constant (Ki) of 2.4 µM. Besides, the Ki at factor Xa is 130 µM. Besides, on trypsin, the inhibition constant Ki was 27 µM. On plasmin, this molecule registered an inhibitory constant (Ki) of 120 µM. The same molecule showed a Ki at factor XIIa of 460 µM. Also, at tPA, the Ki was above 1000 µM. The inhibition constant (Ki) on glandular kallikrein is above 1000 µM. Besides, the inhibition constant (Ki) at plasma kallikrein was above 1000 µM. Further, in “in vivo” (iv), the LD50 at 168 h is above 150 mg/kg. Moreover, the LD50 at 168 h in the series “in vivo” (po) is above 3000 mg/kg. Moreover, in series [2], the concentration at 0.25 h stood at 481 ng/mL, the concentration at 0.5 h was determined as 1110 ng/mL, the concentration at 0.75 h was determined as 796 ng/mL and the concentration at 1 h came out at 574 ng/mL. Moreover, in [2], the concentration at 2 h stood at 542 ng/mL, the concentration at 3 h came to 217 ng/mL, the concentration at 4 h is 113 ng/mL and the concentration at 5 h is 50 ng/mL. For the same molecule, the pharmacokinetic properties entry in [3] (in words, compared with NAPAP) is given as “improved pharmacokinetic properties”. In [3] (rat, i.v. 1 mg/kg, 60 min), this molecule yielded a Concentration in plasma of 0 ng/mL. Also, in series [3] (rat, plasma, iv, 1 mg/kg), the concentration at 2 min was found to be 3260 ng/mL, the concentration at 5 min stood at 1610 ng/mL, the concentration at 10 min was 806 ng/mL and the concentration at 0.25 h amounted to 496 ng/mL. In series [3] (rat, plasma, iv, 1 mg/kg), this molecule returned a concentration at 0.5 h of 477 ng/mL and a concentration at 0.75 h of 134 ng/mL. In series [4], this molecule displayed a concentration at 0.25 h of 340 ng/mL, a concentration at 0.5 h of 330 ng/mL, a concentration at 0.75 h of 374 ng/mL and a concentration at 1 h of 492 ng/mL. Further, in series [4], the concentration at 1.5 h is 354 ng/mL, the concentration at 2 h worked out at 270 ng/mL, the concentration at 3 h was found to be 165 ng/mL and the concentration at 4 h stood at 152 ng/mL. In [4], this molecule gave a concentration at 5 h of 138 ng/mL and a concentration at 6 h of 126 ng/mL.
Take `CC1CCN(C(=O)C(Cc2cccc(C(=N)N)c2)NS(=O)(=O)c2ccc3ccccc3c2)CC1` (racemic) [Compound 34]: the Ki at plasmin is 4 µM; at factor XIIa it was above 1000 µM; on tPA, 460 µM. Further, the “influence on prothrombin time (PT)” value with human plasma was “obtained by higher inhibitor concentrations”.
Consider `CN[C@H](Cc1ccccc1)C(=O)N1CCC[C@H]1C(=O)N[C@H](C=O)CCCN=C(N)N` [N-methyl-D-Phe-Pro-Arg-H], for which, in [1], the “absorption after oral administration” value is given as “absorption after oral administration has so far only been observed”.
With `CC1CCN(C(=O)C(Cc2cccc(N)c2)NS(=O)(=O)c2ccc3ccccc3c2)CC1` (racemic) [Compound 203], the Ki on thrombin is 8.9 µM; at factor Xa, 210 µM; on trypsin, above 1000 µM; on plasmin it was above 1000 µM; on factor XIIa, 270 µM; at tPA it was above 1000 µM. The inhibitory constant (Ki) on glandular kallikrein and at plasma kallikrein was above 1000 µM in each case.
On to `COC(=O)[C@H]1CCCN1C(=O)[C@H](Cc1cccc(C(=N)N)c1)NS(=O)(=O)c1ccc2ccccc2c1` [Compound 124, N-α-(2-Naphthylsulfonyl)-3-amidino-(L)-phenylalanyl-(D)-proline-methyl ester hydrochloride], for which the Ki on thrombin turned out to be 0.27 µM; on factor Xa, 104 µM; at trypsin it was 3.4 µM; on plasmin it was 11 µM; at factor XIIa, 600 µM; on tPA it was 225 µM. Also, the Ki was above 1000 µM at glandular kallikrein and 29 µM at plasma kallikrein. Further, the LD50 at 168 h was 80 mg/kg in the series “in vivo” (iv) and above 3000 mg/kg in the series “in vivo” (po).
With `CC1CCN(C(=O)C(Cc2cccc(CN)c2)NS(=O)(=O)c2ccc3ccccc3c2)CC1` (racemic) [Compound 182, N-α-(2-Naphthylsulfonyl)-3-aminomethyl-(D,L)-phenylalanyl-4-methylpiperidide], the Ki at thrombin was 1.9 µM; at factor Xa it was 500 µM; on trypsin, 3.4 µM; at plasmin it was 27 µM; on factor XIIa, below 1000 µM; on tPA, above 1000 µM. For the same molecule, the Ki at glandular kallikrein is 76 µM; at plasma kallikrein, above 1000 µM.
